Reference: ChEMBL document CHEMBL1201862, “PubChem BioAssay data set” (2004)
Activity calls are given as the source filed them.

Key:
[1] = growth inhibition of yeast DHODH-expressing 3D7 parasites – SYBR Green, dry powder samples, dose response (AID 1159570); type: functional, cell-based;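 further: parasite growth measured after 72 hours of compound exposure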
[2] = toxicity to human HepG2 hepatoma cells – cell-based, plate reader, dry powder samples, cytotoxicity control, dose response (AID 1159569); type: functional;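 further: inhibitor potency with signal falling toward the positive control level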
[3] = P. falciparum Dd2 growth inhibitors, dose response, SYBR Green, cherry-picked samples (AID 1159567); type: functional, cell-based
[4] = Dd2 malaria parasite growth inhibition potency – SYBR Green, dry powder samples, dose response (AID 1159566); type: functional, cell-based;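 further: potency for growth inhibition with lower SYBR green DNA signal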
[5] = growth inhibition of PfATP4-mutant resistant parasites – NITD609-resistant line, SYBR Green, dry powder, dose response (AID 1159571); type: functional, cell-based;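 further: parasites synchronized at ring stage by sorbitol before testing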
HEK293 = experiment: viability loss in HEK293T cells – cell-based, ATP luminescence, cherry-pick samples, cytotoxicity control, dose response (AID 687005); type: functional; conditions: Homo sapiens;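 further: cells exposed to compound for 48 hours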
[6] = HEK293 Cytotoxicity Assay Measured in Cell-Based System Using Plate Reader - 7071-01_Inhibitor_Dose_CherryPick_Activity_Set2.; type: functional
[7] = Potency on glucagon-like peptide 1 release, dose-response in NCI-H716 cell line, half maximal inhibitory concentration (AID 1117344); type: functional, cell-based
[8] = biological target: T1, RNA-binding protein pos-1 (Caenorhabditis elegans, UniProt G5EF15); experiment: disruptors of C. elegans POS-1 RNA interaction – biochemical, fluorescence polarization, dose response (AID 1964);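 further: purified POS-1 fused to maltose binding protein made in E. coli; potency of compounds blocking POS-1 binding to fluorescent RNA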
T1 sequence (G5EF15 whole entry): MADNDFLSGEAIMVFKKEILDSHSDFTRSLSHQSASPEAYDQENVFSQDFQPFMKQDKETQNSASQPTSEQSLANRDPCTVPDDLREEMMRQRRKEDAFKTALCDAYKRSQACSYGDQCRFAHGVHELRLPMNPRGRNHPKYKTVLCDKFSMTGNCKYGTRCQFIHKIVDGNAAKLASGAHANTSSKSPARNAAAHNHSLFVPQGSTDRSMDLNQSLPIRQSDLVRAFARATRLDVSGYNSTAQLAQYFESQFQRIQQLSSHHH

[9] = biological target: T2, Zinc finger protein mex-5 (Caenorhabditis elegans, UniProt Q9XUB2); experiment: potency of MEX-5 RNA-binding blockers – biochemical, C. elegans, fluorescence polarization, dose response (AID 1960)
T2 sequence (Q9XUB2 whole entry): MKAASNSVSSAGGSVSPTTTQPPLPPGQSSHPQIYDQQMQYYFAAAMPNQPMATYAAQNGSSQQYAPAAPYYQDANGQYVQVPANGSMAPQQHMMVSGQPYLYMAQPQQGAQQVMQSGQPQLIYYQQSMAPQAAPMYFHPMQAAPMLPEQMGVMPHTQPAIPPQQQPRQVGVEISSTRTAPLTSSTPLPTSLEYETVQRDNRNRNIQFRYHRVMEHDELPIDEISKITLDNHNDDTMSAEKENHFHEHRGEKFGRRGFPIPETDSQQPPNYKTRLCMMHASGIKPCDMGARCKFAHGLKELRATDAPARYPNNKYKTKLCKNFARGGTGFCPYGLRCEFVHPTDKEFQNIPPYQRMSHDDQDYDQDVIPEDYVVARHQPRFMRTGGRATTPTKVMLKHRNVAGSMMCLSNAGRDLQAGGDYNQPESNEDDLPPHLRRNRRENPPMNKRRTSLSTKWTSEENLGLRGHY

[10] = biological target: T3, Histone-lysine N-methyltransferase NSD2 (Homo sapiens, UniProt O96028); type: biochemical
T3 sequence (O96028 whole entry): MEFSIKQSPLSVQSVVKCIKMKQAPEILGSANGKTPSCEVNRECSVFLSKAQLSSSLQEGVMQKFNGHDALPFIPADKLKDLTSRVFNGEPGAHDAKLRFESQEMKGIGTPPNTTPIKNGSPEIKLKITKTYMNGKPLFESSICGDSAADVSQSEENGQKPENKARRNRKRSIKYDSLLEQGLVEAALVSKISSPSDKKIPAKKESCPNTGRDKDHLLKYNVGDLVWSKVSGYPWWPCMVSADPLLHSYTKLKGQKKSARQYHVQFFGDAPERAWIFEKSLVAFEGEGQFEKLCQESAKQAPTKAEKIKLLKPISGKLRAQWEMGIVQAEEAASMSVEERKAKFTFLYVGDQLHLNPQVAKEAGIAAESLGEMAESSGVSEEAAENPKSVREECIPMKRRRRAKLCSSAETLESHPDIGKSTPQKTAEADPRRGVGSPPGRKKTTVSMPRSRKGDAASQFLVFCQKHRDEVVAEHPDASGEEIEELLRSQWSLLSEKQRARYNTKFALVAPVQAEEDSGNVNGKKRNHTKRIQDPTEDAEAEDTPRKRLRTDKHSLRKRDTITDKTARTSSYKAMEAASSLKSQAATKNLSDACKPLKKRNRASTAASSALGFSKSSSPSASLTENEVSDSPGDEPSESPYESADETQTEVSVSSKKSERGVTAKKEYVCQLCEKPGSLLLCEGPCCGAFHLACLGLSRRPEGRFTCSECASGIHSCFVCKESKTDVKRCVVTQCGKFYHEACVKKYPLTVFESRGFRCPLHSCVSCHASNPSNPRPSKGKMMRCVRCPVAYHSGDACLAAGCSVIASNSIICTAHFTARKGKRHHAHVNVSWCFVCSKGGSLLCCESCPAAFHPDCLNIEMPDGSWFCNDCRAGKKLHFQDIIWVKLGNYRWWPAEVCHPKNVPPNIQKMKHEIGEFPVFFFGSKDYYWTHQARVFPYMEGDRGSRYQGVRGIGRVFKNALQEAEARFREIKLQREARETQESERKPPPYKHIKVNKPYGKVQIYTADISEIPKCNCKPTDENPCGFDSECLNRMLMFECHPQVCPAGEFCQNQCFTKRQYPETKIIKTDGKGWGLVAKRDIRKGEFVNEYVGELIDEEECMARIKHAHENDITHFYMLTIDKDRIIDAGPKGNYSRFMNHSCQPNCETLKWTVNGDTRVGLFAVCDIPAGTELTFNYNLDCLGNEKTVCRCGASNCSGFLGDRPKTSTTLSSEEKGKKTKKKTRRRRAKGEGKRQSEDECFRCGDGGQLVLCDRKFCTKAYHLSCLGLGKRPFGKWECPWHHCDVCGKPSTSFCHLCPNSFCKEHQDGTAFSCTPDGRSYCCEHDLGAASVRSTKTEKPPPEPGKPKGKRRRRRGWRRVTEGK

Protein Tat = Protein Tat (Human immunodeficiency virus type 1 group M subtype B (isolate HXB2)(HIV-1), UniProt P04608); type: functional;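 further: tat binding to TAR RNA read out by fluorescence polarization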
[11] = reduction of Shn3 3'UTR-driven luciferase in osteoblasts – cell-based, Clone20 osteoblasts, firefly luciferase, cherry-picked, dose response (AID 624132); type: functional;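 further: firefly luciferase luminescence from reporter carrying the Shn3 3'UTR in osteoblasts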
[12] = loss of viability in HepG2 cells – cell-based, CellTiter-Glo, cherry-picked, cytotoxicity control for Shn3 inhibitor project, dose response (AID 624134); type: functional
[13] = non-specific 3'UTR reporter inhibition in Clone20-Shn3RL – cell-based, Renilla luciferase, cherry-picked, counter-screen for Shn3 inhibitor project, dose response (AID 624133); type: functional
[14] = Shn3 3'UTR reporter signal decrease – cell-based, Clone20 osteoblasts, firefly luciferase, cherry-pick, set 2, Schnurri-3 inhibitor project, dose response (AID 720490); type: functional;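 further: actives lower the luminescence signal as inhibitors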
[15] = toxicity to human hepatoma HepG2 cells – cell-based, cherry-picked samples, cytotoxicity control, dose response (AID 1159577); type: functional
[16] = HPDE-C7 pancreatic duct cell viability loss – fluorescence, HTS (AID 430); type: functional, cell-based; conditions: Homo sapiens
Large T antigen = Large T antigen (Simian virus 40, UniProt P03070); type: functional, Betapolyomavirus macacae;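 further: Confirmatory-stage PubChem screen for compounds that inhibit SV40 T antigen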
[17] = viability loss of HPDE-C7K cells – cell-based, fluorescence, HTS, primary screen (AID 431); type: functional; conditions: Homo sapiens
[18] = CellTiter-Glo luminescence survival assay, SW480 colon tumor line, concentration-response curve, half-maximal inhibitory concentration (AID 1117338); type: functional
[19] = RKO cell viability reduction, dose response, CellTiter-Glo luminescence (AID 1117322); type: functional
[20] = cytotoxicity toward HCT116 cells – cell-based, CellTiter-Glo luminescence, IC50, dose response (AID 1117332); type: functional; conditions: HCT-116
[21] = SNU-C1 cell viability reduction, dose response, CellTiter-Glo luminescence (AID 1117323); type: functional, cell-based
[22] = cytotoxicity toward Colo320 cells – cell-based, CellTiter-Glo luminescence, IC50, dose response (AID 1117334); type: functional; conditions: COLO 320
[23] = Reduced DLD-1 viability, concentration-response, CellTiter-Glo luminescence (AID 1117352); type: functional
[24] = HCT116 cell viability decrease, GSK3B pretreatment – CellTiter-Glo, IC50, dose response (AID 1117339); type: functional; conditions: HCT-116

Chain of Large T antigen (P03070 whole entry): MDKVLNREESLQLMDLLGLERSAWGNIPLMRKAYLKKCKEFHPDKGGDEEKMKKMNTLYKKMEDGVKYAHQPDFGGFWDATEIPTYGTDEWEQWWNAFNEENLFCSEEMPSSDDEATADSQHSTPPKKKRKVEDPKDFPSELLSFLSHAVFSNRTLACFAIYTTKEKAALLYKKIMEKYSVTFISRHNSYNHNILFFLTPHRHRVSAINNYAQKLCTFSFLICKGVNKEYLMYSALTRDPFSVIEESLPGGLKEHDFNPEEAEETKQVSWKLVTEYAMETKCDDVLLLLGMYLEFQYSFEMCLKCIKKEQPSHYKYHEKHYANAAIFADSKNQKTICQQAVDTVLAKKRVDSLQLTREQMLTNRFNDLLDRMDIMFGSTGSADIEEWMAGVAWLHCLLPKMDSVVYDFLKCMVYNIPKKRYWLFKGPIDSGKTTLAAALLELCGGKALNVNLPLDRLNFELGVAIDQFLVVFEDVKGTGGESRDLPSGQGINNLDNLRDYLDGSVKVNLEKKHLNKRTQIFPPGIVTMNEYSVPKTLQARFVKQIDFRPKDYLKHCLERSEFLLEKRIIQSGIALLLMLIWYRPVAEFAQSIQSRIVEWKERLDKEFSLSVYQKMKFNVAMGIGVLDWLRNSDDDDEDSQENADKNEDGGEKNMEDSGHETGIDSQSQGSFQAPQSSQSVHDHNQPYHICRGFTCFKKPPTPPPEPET
Chain of Protein Tat (P04608 whole entry): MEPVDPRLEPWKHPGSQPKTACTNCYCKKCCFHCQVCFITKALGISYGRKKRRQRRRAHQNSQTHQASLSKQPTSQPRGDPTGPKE

COc1cc(CN2C[C@@H]3N[C@H](C2)[C@H]3c2ccc(-c3ccncc3)cc2)cc(OC)c1
AC50 [1]: 1.33 µM (active) | AC50 [2]: 19.6 µM (active) | AC50 [3]: 1.63 µM (active) | AC50 [4]: 1.16 µM (active) | AC50 [5]: 0.886 µM (active)

Cc1cccc(-c2ccc([C@@H]3[C@@H](CO)N4CCCCN(S(=O)(=O)c5ccccc5C)C[C@@H]34)cc2)c1
AC50 (HEK293): 19.3 µM (active) | AC50 [6]: 19.3 µM (active)

Cc1ccc(C(=O)Nc2ccc(S(=O)(=O)O)c3cc(S(=O)(=O)O)cc(S(=O)(=O)O)c23)cc1NC(=O)c1cccc(NC(=O)Nc2cccc(C(=O)Nc3cc(C(=O)Nc4ccc(S(=O)(=O)O)c5cc(S(=O)(=O)O)cc(S(=O)(=O)O)c45)ccc3C)c2)c1 [SURAMIN]
IC50 [7]: > 40 µM (inactive)

O=C(c1coc(=O)c(Br)c1)N1CCCc2ccccc21
EC50 [8]: > 300 µM (not active) | EC50 [9]: > 300 µM (not active) | AC50 [10]: 12.2 µM (active) | IC50 (Protein Tat): 4.84 µM (inconclusive)

CCOC(=O)c1oc2ccc(S(=O)(=O)n3nc(-c4ccc(OC)cc4)cc3N)cc2c1C
AC50 [11]: 1.99 µM (active) | AC50 [12]: 60 µM (active) | AC50 [13]: 30 µM (active) | AC50 [14]: 4.68 µM (active)

N#C[C@@H]1[C@H](c2ccc(C#CC3CCCCC3)cc2)[C@@H](CO)N1C(=O)Cc1ccccn1
AC50 [3]: 3.79 µM (active) | AC50 [15]: > 39 µM (inactive)

COc1cccc(-c2ccc([C@H]3[C@H](C#N)N(C(=O)Cc4ccncc4)[C@H]3CO)cc2)c1
AC50 [3]: 4.28 µM (active) | AC50 [15]: 33.8 µM (active)

C=C(CC)C(=O)c1ccc(OCC(=O)O)c(Cl)c1Cl [ETHACRYNIC ACID]
EC50 [16]: 10.4 µM (active) | IC50 (Large T antigen): > 100 µM (active) | EC50 [17]: 11.3 µM (active) | IC50 [18]: > 6.67 µM (inactive) | IC50 [19]: > 6.67 µM (inactive) | IC50 [20]: > 20 µM (inactive) | IC50 [21]: > 20 µM (inactive) | IC50 [22]: > 20 µM (inactive) | IC50 [23]: 11.9 µM (inactive) | IC50 [24]: 12.2 µM (inactive)

COc1ccc(CNC(=O)C(C)n2ccc3cc(S(=O)(=O)N4CCCCCC4)ccc32)cc1 (stereo not drawn)
AC50 [11]: 0.518 µM (active) | AC50 [12]: > 70 µM (inactive) | AC50 [14]: 17.4 µM (active)
